Data: PMC7318308, “A Novel Synthetic Dual Agonistic Liposomal TLR4/7 Adjuvant Promotes Broad Immune Responses in an Influenza Vaccine With Minimal Reactogenicity” (Frontiers in Immunology, 2020)

Assays:
human TLR4 = target: T1, human TLR4 (Homo sapiens, UniProt O00206+Q9Y6Y9); assay: TLR4/NF-κB reporter cell assay (SEAP), HEK-Blue hTLR4; format: cell-based; details: for human TLR4 agonistic activity (in words): AUC normalized to 2B110 as 100%, Figure 1C
T1 construct: host or cells: HEK-Blue hTLR4 (HEK293-derived NF-κB/SEAP reporter cells)
T1 sequence (O00206 24-839): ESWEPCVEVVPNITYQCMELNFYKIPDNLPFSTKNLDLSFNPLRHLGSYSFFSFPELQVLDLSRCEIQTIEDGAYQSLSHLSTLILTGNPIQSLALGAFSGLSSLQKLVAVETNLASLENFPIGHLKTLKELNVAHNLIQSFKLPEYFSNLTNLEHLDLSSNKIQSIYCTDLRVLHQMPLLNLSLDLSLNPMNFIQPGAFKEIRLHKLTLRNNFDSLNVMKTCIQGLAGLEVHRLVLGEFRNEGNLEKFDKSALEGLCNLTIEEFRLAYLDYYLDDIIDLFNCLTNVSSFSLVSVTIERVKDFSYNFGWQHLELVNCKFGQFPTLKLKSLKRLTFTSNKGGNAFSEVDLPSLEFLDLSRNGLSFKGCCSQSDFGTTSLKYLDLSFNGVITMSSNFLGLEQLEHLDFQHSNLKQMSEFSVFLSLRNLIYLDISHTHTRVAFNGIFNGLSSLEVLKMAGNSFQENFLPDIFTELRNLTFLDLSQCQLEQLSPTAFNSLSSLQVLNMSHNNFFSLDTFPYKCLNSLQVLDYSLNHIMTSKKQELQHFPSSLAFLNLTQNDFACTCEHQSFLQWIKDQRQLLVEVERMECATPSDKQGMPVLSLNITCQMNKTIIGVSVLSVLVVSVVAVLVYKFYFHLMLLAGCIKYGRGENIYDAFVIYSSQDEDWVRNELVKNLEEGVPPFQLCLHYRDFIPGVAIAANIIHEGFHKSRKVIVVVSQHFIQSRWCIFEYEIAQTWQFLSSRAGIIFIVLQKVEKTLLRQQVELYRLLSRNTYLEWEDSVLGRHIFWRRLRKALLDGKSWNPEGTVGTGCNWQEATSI
T1 sequence (Q9Y6Y9 17-160 limits assumed): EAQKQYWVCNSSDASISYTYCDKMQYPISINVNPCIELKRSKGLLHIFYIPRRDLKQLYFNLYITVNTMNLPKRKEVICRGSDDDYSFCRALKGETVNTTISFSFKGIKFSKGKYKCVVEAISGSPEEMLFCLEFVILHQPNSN
Description: (§1) Figure 1 Structure-activity relationship studies in TLR4 agonistic pyrimidoindoles. (A) Syntheses of C8-alkynyl and C8-alkyl analogs. (B) Syntheses of C8-aryl analogs. (C) Scatter plot of hTLR4 and mTLR4 agonistic activity in TLR4-NF-κB HEK reporter cells (HEK-Blue™ hTLR4 and HEK-Blue™ mTLR4, respectively). NF-κB inducible NF-κB SEAP levels in culture supernatants were measured according to manufacturer's protocol. The TLR4 agonistic potency was evaluated as area under the curve (AUC) calculated for dose response curve using 2-fold serial dilutions from 10 μM, and normalized to the AUC for 2B110 as 100% on both axes. […] The color of each point is based on cell viability in TLR4-NF-κB reporter cells for compounds evaluated at 5 μM concentration. Viability data was normalized to vehicle control (Vehicle OD570−650 = 0.58 ± 0.01). (D) Structures of the lead compounds with differences at C8 substitution highlighted in blue.
(§2) Titration curves of 1Z105 and derivatives were used to assess their potency in stimulating human and mouse TLR4 response using HEK NF-κB reporter cells (HEK-Blue™ hTLR4 and mTLR4, respectively). The areas under the curve for dose response curves relative to vehicle (0.5% DMSO) were normalized to the greatest activity as 100% of 2B110 for both assays (Figure 1C). The compounds were also tested for in vitro toxicity by MTT assay (Figure 1C, Supplementary Figure 1).
(§3) TLR4/NF-κB activation was assessed using HEK-Blue™ hTLR4 and HEK-Blue™ mTLR4 (InvivoGen). The cells were treated with 1Z105 and 2B182C (2-fold serial dilutions starting from 10 μM) for 20 h. NF-κB inducible secreted embryonic alkaline phosphatase (SEAP) protein in the culture supernatant was measured according to manufacturer's protocol. To evaluate cell viability, 0.5 mg/mL 3-[4,5-dimethylthiazol-2-yl]-2,5-dipheyl tetrazolium bromide (MTT, Thermo Fisher Scientific) solution was added to each well and incubated at 37°C. Six hours later, formazan crystals were lysed with lysis buffer (15% SDS and 0.12% 12 N HCl) and the absorbance was measured at 570 nm using 650 nm as a reference with a plate reader (Tecan, Switzerland).

mouse TLR4 = target: T2, mouse TLR4 (Mus musculus, UniProt Q9JHF9+Q9QUK6); assay: TLR4/NF-κB reporter cell assay (SEAP), HEK-Blue mTLR4; format: cell-based; details: for murine TLR4 agonistic activity (in words): AUC normalized to 2B110 as 100%, Figure 1C
T2 construct: host or cells: HEK-Blue mTLR4 (HEK293-derived NF-κB/SEAP reporter cells)
T2 sequence (Q9QUK6 26-835): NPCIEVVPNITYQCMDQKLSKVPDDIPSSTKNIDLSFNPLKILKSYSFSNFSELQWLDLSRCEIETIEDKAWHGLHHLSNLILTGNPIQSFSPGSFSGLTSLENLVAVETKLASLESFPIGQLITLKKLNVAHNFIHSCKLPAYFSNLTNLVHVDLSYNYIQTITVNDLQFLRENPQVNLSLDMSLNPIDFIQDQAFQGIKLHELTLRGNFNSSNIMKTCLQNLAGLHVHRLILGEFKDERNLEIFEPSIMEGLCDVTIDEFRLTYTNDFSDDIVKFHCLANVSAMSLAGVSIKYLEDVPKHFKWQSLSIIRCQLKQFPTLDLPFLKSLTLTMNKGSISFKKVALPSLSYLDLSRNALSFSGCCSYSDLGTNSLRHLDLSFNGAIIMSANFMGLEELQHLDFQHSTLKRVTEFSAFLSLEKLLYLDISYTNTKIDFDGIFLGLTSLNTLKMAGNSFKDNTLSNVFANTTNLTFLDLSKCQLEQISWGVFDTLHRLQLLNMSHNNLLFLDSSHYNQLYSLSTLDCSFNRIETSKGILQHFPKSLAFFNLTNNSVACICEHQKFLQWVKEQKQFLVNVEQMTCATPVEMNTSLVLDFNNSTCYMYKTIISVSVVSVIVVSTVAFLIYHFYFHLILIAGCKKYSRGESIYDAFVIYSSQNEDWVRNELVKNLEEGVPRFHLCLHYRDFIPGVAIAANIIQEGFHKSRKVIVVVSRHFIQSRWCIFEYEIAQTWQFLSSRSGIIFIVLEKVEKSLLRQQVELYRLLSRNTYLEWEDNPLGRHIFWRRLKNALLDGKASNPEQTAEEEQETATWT
T2 sequence (Q9JHF9 19-160): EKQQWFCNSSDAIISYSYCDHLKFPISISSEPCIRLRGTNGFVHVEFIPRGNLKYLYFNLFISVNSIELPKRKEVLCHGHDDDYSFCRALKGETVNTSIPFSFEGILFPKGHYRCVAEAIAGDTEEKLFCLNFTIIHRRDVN
Description: as §1, §2, §3

[1] = system: TLR4-NF-κB reporter cells; assay: MTT cell viability in TLR4-NF-κB reporter cells; format: cell-based; details: for toxicity in cell-based MTT assay (in words): viability at 5 μM in Figure 1C, normalized to vehicle
Description: as §1, §3

[2] = system: HEK-Blue mTLR4 reporter cells; assay: MTT cell viability, murine TLR4 reporter cells; format: cell-based; details: concentrations below 10 µM, MTT
Description: as §3
Human TLR4 reporter cells Murine TLR4 reporter cells
[Compound] 1 μM 10 [Compound] 1 μM 10
Supplementary Figure 1. Dose response curves for cell viability (toxicity) of lead compounds in human and murine TLR4-NF-κB reporter cells. Cellular toxicity evaluated by MTT assay is presented as % viability normalized to vehicle (0.5% DMSO) as 100%. While 1Z105 had minimal toxicity in both hTLR4 and mTLR4 reporter cells (HEK-BlueTM hTLR4 and HEK-BlueTM mTLR4, […]
(also on this page, place not known: %Relative (Normalized 100%) 101101 viability vehicle as to)

TLR4 = TLR4 activity in HEK NF-κB reporter cells, species not told apart in the text; format: cell-based, human and mouse; details: HEK-Blue hTLR4 and mTLR4, Figure 1C
Description: as §1, §2, §3

[3] = 2-fold serial dilutions from 10 μM, the value taken as 100% for normalisation

Row | Structure (SMILES) | human TLR4 agonistic activity (in words) (human TLR4) | murine TLR4 agonistic activity (in words) (mouse TLR4) | TLR4 activity (species not told apart) (TLR4) | further results
1 | Cn1c2ccc(-c3ccccc3)cc2c2nc(SCC(=O)NC3CCCCC3)n(-c3ccccc3)c(=O)c21 [2B110] | high TLR4 stimulatory potency | high TLR4 stimulatory potency |  | AUC of dose response curve, hTLR4 reporter cells (human TLR4; [3]): 14.95 ± 1.95; AUC of dose response curve, mTLR4 reporter cells (mouse TLR4; [3]): 28.43 ± 5.49 units; toxicity at 10 µM (in words) ([1]; 10 µM, MTT, Supplementary Figure 1): exhibited toxicity; toxicity in cell-based MTT assay (in words) [1]: slightly higher toxicity in MTT assays than did 2B182C; toxicity at lower concentrations, mTLR4 reporter cells (in words) [2]: more toxic compared to 8s
2 | C#Cc1ccc2c(c1)c1nc(SCC(=O)NC3CCCCC3)n(-c3ccccc3)c(=O)c1n2C [6a] |  |  | reduction in TLR4 activity | 
3 | CCCC#Cc1ccc2c(c1)c1nc(SCC(=O)NC3CCCCC3)n(-c3ccccc3)c(=O)c1n2C [6b] |  |  | highest level of TLR4 activation | 
4 | CCCCCC#Cc1ccc2c(c1)c1nc(SCC(=O)NC3CCCCC3)n(-c3ccccc3)c(=O)c1n2C [6c] |  |  | reduction in TLR4 activity | 
5 | CCCCCCCCCCC#Cc1ccc2c(c1)c1nc(SCC(=O)NC3CCCCC3)n(-c3ccccc3)c(=O)c1n2C [6d] |  |  | completely inactive | 
6 | CCc1ccc(-c2ccc3c(c2)c2nc(SCC(=O)NC4CCCCC4)n(-c4ccccc4)c(=O)c2n3C)cc1 [8d] |  |  | maintaining TLR4 activity | toxicity in cell-based MTT assay (in words) [1]: relatively high toxicity
7 | CCCCc1ccc(-c2ccc3c(c2)c2nc(SCC(=O)NC4CCCCC4)n(-c4ccccc4)c(=O)c2n3C)cc1 [8e] |  |  | maintaining TLR4 activity | toxicity in cell-based MTT assay (in words) [1]: relatively high toxicity
8 | Cn1c2ccc(-c3cccc(-c4ccccc4)c3)cc2c2nc(SCC(=O)NC3CCCCC3)n(-c3ccccc3)c(=O)c21 [8f] | dramatic loss of human TLR4 activity |  |  | 
9 | COc1cccc(-c2ccc3c(c2)c2nc(SCC(=O)NC4CCCCC4)n(-c4ccccc4)c(=O)c2n3C)c1 [8h] | dramatic loss of human TLR4 activity |  |  | 
10 | Cn1c2ccc(-c3cccc(N)c3)cc2c2nc(SCC(=O)NC3CCCCC3)n(-c3ccccc3)c(=O)c21 [8k] | significant loss | significant loss |  | 
11 | Cn1c2ccc(-c3cccc(C(=O)O)c3)cc2c2nc(SCC(=O)NC3CCCCC3)n(-c3ccccc3)c(=O)c21 [8l] | significant loss | significant loss |  | 
12 | Cn1c2ccc(-c3cccc(O)c3)cc2c2nc(SCC(=O)NC3CCCCC3)n(-c3ccccc3)c(=O)c21 [8m] | significant loss | significant loss |  | 
13 | Cn1c2ccc(-c3cccc(C#N)c3)cc2c2nc(SCC(=O)NC3CCCCC3)n(-c3ccccc3)c(=O)c21 [8n] | less potent than 2B110 | retained murine TLR4 activity |  | 
14 | Cn1c2ccc(-c3cccc([N+](=O)[O-])c3)cc2c2nc(SCC(=O)NC3CCCCC3)n(-c3ccccc3)c(=O)c21 [8o] | less potent than 2B110 | retained murine TLR4 activity |  | 
